Assay [1] has as its target BTK (Homo sapiens, UniProt Q06187). Put plainly: Degradation of BTK protein in Namalwa cells (Western blot; DC50, Dmax). Conditions: for DC50: cell line not given; for degradation of BTK protein: Namalwa B lymphocyte cells, various concentrations, 24 hours, Western blot. In general terms: Immunoblotting shows a protein as a band on a membrane.
Assay [2] has as its system Mino cells. Put plainly: Antiproliferative effect, MTS cell viability assay, Mino cells. It counts as cell-based. The settings on record: Homo sapiens, Mino mantle cell lymphoma cells, read-out: IC50 (anti-proliferation) Mino cells. In a few lines:
(§1)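 MTS read-out, A490 of formazan from metabolically active cells; compound 0–10 μM (0, 0.001, 0.01, 0.1, 1, 10 μM), 72 h exposure.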

Assay [3] concerns JeKo-1 cells. Put plainly: Antiproliferative effect, MTS cell viability assay, JeKo-1 cells. Conditions: Homo sapiens; JeKo-1 mantle cell lymphoma cells; read-out: IC50 (anti-proliferation) JeKO-1 cells. It counts as cell-based. In a few lines: as §1
(Tetrazolium dyes change colour on reduction, which living cells bring about.)

Setting [4] is: read-out: DC50 (BTK degradation), concentration giving 50% reduction of BTK expression level.
Where [5] appears, read: read-out: Dmax (BTK degradation).

Molecules are shown by their SMILES. Where two headings read alike, the source gives them in different places.

BTK, sequence (Q06187 whole entry): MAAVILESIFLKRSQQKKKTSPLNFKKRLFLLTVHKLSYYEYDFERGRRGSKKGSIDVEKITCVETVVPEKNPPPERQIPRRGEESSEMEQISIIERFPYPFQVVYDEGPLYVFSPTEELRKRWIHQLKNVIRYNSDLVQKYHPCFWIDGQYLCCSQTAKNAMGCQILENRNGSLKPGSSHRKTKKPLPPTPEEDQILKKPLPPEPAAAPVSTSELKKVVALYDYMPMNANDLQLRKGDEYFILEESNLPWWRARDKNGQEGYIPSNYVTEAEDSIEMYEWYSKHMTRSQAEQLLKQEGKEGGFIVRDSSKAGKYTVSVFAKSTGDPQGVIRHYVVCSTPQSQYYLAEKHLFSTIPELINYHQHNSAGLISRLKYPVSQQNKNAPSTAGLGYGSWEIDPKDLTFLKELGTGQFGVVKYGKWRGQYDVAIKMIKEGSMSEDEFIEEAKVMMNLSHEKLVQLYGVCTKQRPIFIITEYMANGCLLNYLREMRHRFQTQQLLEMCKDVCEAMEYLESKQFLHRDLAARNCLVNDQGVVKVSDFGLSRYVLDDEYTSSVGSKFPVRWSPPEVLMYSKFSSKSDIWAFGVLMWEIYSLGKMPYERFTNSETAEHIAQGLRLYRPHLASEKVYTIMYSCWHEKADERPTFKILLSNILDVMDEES

As a reminder, the DC50 is the concentration giving 50% degradation. A word on the Dmax: it is the largest share of the target that was removed. Regarding `Nc1ncnc2c1c(-c1ccc(Oc3ccccc3)cc1)nn2C1CCN(CCN2CCC(CN3CCN(c4ccc(N5CCC(=O)NC5=O)cc4)CC3)CC2)CC1` [Compound 554, 1-(4-(4-((1-(2-(4-(4-amino-3-(4-phenoxyphenyl)-1H-pyrazolo[3,4-d]pyrimidin-1-yl)piperidin-1-yl)ethyl)piperidin-4-yl)methyl)piperazin-1-yl)phenyl)dihydropyrimidine-2,4(1H,3H)-dione], the DC50 in assay [1] (setting [4]) is less than 10 nM. The Dmax in assay [1] (setting [5]) is greater than 90%. For the same compound, the IC50 in assay [2] (MINO) and in assay [3] was less than 1000 nM each time.

Take `NC(=O)c1c(-c2ccc(Oc3ccccc3)cc2)nn2c1NCC[C@H]2C1CCN(CC2CCN(C(=O)N3CCC(N4CCC(c5ccc6c(c5)C(=O)N(C5CCC(=O)NC5=O)C6=O)CC4)CC3)CC2)CC1` (stereo partly drawn) [Compound 407, (7S)-7-(1-((1-(4-(2-(2,6-dioxopiperidin-3-yl)-1,3-dioxoisoindolin-5-yl)-[1,4′-bipiperidine]-1′-carbonyl)piperidin-4-yl)methyl)piperidin-4-yl)-2-(4-phenoxyphenyl)-4,5,6,7-tetrahydropyrazolo[1,5-a]pyrimidine-3-carboxamide]: in assay [1] (setting [4]), the DC50 lay in the range of 10 to 50 nM. The Dmax in assay [1] (setting [5]) was greater than 75%. The IC50 in assay [2] (MINO) is 1000 to 10000 nM; in assay [3], greater than 10000 nM.

`NC(=O)c1c(-c2ccc(Oc3ccccc3)cc2)nn2c1NCC[C@H]2C1CCN(CC2CCN(C(=O)N3CCC(CN4CCC(c5ccc6c(c5)CN(C5CCC(=O)NC5=O)C6=O)CC4)CC3)CC2)CC1` (stereo partly drawn) [Compound 416, (7S)-7-(1-((1-(4-((4-(2-(2,6-dioxopiperidin-3-yl)-1-oxoisoindolin-5-yl)piperidin-1-yl)methyl)piperidine-1-carbonyl)piperidin-4-yl)methyl)piperidin-4-yl)-2-(4-phenoxyphenyl)-4,5,6,7-tetrahydropyrazolo[1,5-a]pyrimidine-3-carboxamide]: the DC50 in assay [1] (setting [4]) was in the range of 10 to 50 nM. Further, the Dmax in assay [1] (setting [5]) is greater than 75%. The IC50 in assay [2] (MINO) and in assay [3] was 1000 to 10000 nM in each case.

`NC(=O)c1c(-c2ccc(Oc3ccccc3)cc2)nn2c1NCC[C@H]2C1CCN(C(=O)N2CCN(CCN3CCC(c4ccc5c(c4)C(=O)N(C4CCC(=O)NC4=O)C5=O)CC3)CC2)CC1` (stereo partly drawn) [Compound 303, (7S)-7-(1-(4-(2-(4-(2-(2,6-dioxopiperidin-3-yl)-1,3-dioxoisoindolin-5-yl)piperidin-1-yl)ethyl)piperazine-1-carbonyl)piperidin-4-yl)-2-(4-phenoxyphenyl)-4,5,6,7-tetrahydropyrazolo[1,5-a]pyrimidine-3-carboxamide] returned a Dmax in assay [1] greater than 75%. This compound gave a DC50 in assay [1] (BTK degradation) of 10 to 50 nM. Besides, the IC50 in assay [2] (MINO) and in assay [3] was 1000 to 10000 nM in each case.

With `NC(=O)c1c(-c2ccc(Oc3ccccc3)cc2)nn2c1NCC[C@H]2C1CCN(C2CCN(CCN3CCN(c4ccc5c(c4)C(=O)N(C4CCC(=O)NC4=O)C5=O)CC3)CC2)CC1` (stereo partly drawn) [Compound 323, (7S)-7-(1′-(2-(4-(2-(2,6-dioxopiperidin-3-yl)-1,3-dioxoisoindolin-5-yl)piperazin-1-yl)ethyl)-[1,4′-bipiperidin]-4-yl)-2-(4-phenoxyphenyl)-4,5,6,7-tetrahydropyrazolo[1,5-a]pyrimidine-3-carboxamide], the Dmax in assay [1] was greater than 75%. Further, the DC50 in assay [1] (BTK degradation) lay within 10 to 50 nM. For the same compound, the IC50 in assay [2] (MINO) and in assay [3] was 1000 to 10000 nM throughout.

In assay [1], `Nc1ncnc2c1c(-c1ccc(Oc3ccccc3)cc1)nn2C1CCN(CC2CCN(CCN3CCC(c4ccc5c(c4)CN(C4CCC(=O)NC4=O)C5=O)CC3)CC2)CC1` (stereo not shown) [Compound 206, 3-(5-(1-(2-(4-((4-(4-amino-3-(4-phenoxyphenyl)-1H-pyrazolo[3,4-d]pyrimidin-1-yl)piperidin-1-yl)methyl)piperidin-1-yl)ethyl)piperidin-4-yl)-1-oxoisoindolin-2-yl)piperidine-2,6-dione] registered a Dmax greater than 90%. The same compound had a DC50 in assay [1] (BTK degradation) of 10 to 50 nM. Besides, the IC50 in assay [2] (MINO) and in assay [3] was less than 1000 nM in each case.

`NC(=O)c1c(-c2ccc(Oc3ccccc3)cc2)nn2c1NCCC2C1CCN(C2CCN(C(=O)N3CCC(CN4CCN(c5ccc6c(c5)C(=O)N(C5CCC(=O)NC5=O)C6=O)CC4)CC3)CC2)CC1` (stereo not shown) [Compound 349, 7-(1′-(4-((4-(2-(2,6-dioxopiperidin-3-yl)-1,3-dioxoisoindolin-5-yl)piperazin-1-yl)methyl)piperidine-1-carbonyl)-[1,4′-bipiperidin]-4-yl)-2-(4-phenoxyphenyl)-4,5,6,7-tetrahydropyrazolo[1,5-a]pyrimidine-3-carboxamide] displayed a Dmax in assay [1] greater than 90%. Besides, the DC50 in assay [1] (BTK degradation) fell in the range of 10 to 50 nM. In addition, the IC50 in assay [2] (MINO) and in assay [3] was 1000 to 10000 nM throughout.

Turning to `Nc1ncnc2c1c(-c1ccc(Oc3ccccc3)cc1)nn2C1CCN(CC2CCN(CCCC3CCN(c4ccc5c(c4)C(=O)N(C4CCC(=O)NC4=O)C5=O)CC3)CC2)CC1` (stereo not shown) [Compound 211, 5-(4-(3-(4-((4-(4-amino-3-(4-phenoxyphenyl)-1H-pyrazolo[3,4-d]pyrimidin-1-yl)piperidin-1-yl)methyl)piperidin-1-yl)propyl)piperidin-1-yl)-2-(2,6-dioxopiperidin-3-yl)isoindoline-1,3-dione], the Dmax in assay [1] is greater than 75%. Besides, in assay [1] (BTK degradation), the DC50 is 10 to 50 nM. Moreover, the IC50 was 1000 to 10000 nM in assay [2] (MINO) and greater than 10000 nM in assay [3].

Take `Nc1ncnc2c1c(-c1ccc(Oc3ccccc3)cc1)nn2C1CCN(CCN2CCC(N3CCN(c4ccc5c(c4)C(=O)N(C4CCC(=O)NC4=O)C5=O)CC3)C2)CC1` (single isomer, unassigned) [Compound 459a, 5-(4-(1-(2-(4-(4-amino-3-(4-phenoxyphenyl)-1H-pyrazolo[3,4-d]pyrimidin-1-yl)piperidin-1-yl)ethyl)pyrrolidin-3-yl)piperazin-1-yl)-2-(2,6-dioxopiperidin-3-yl)isoindoline-1,3-dione]: in assay [1] (setting [4]), the DC50 is 10 to 50 nM. Also, the Dmax in assay [1] (setting [5]) is greater than 90%. The IC50 in assay [2] (MINO) and in assay [3] was less than 1000 nM each time.

As to `Nc1ncnc2c1c(-c1ccc(Oc3ccccc3)cc1)nn2C1CCN(CC2CCN(CC3CN(c4ccc5c(c4)C(=O)N(C4CCC(=O)NC4=O)C5=O)C3)C2)CC1` (stereo not shown) [Compound 423, 5-(3-((3-((4-(4-amino-3-(4-phenoxyphenyl)-1H-pyrazolo(3,4-d)pyrimidin-1-yl)piperidin-1-yl)methyl)pyrrolidin-1-yl)methyl)azetidin-1-yl)-2-(2,6-dioxopiperidin-3-yl)isoindoline-1,3-dione], the “degradation of BTK protein” value in assay [1] is listed as “dose-dependent degradation”. For the same compound, the DC50 in assay [1] (setting [4]) fell in the range of 10 to 50 nM. Besides, the Dmax in assay [1] (setting [5]) is greater than 90%. For the same compound, the IC50 in assay [2] (MINO) is less than 1000 nM; in assay [3], 1000 to 10000 nM.

On to `NC(=O)c1c(-c2ccc(Oc3ccccc3)cc2)nn2c1NCC[C@H]2C1CCN(C2CCN(C(=O)N3CCC(CN4CCN(c5ccc6c(c5)C(=O)N(C5CCC(=O)NC5=O)C6=O)CC4)CC3)CC2)CC1` (stereo partly drawn) [Compound 389, (7S)-7-(1′-(4-((4-(2-(2,6-dioxopiperidin-3-yl)-1,3-dioxoisoindolin-5-yl)piperazin-1-yl)methyl)piperidine-1-carbonyl)-[1,4′-bipiperidin]-4-yl)-2-(4-phenoxyphenyl)-4,5,6,7-tetrahydropyrazolo[1,5-a]pyrimidine-3-carboxamide], for which, in assay [1], the Dmax is greater than 90%. In assay [1] (BTK degradation), this compound had a DC50 of 10 to 50 nM. The IC50 in assay [2] (MINO) and in assay [3] was 1000 to 10000 nM throughout.

As for `Nc1ncnc2c1c(-c1ccc(Oc3ccccc3)cc1)nn2C1CCN(CCN2CCC(CSc3ccc4c(c3)C(=O)N(C3CCC(=O)NC3=O)C4=O)CC2)CC1` (stereo not shown) [Compound 469, 5-(((1-(2-(4-(4-amino-3-(4-phenoxyphenyl)-1H-pyrazolo[3,4-d]pyrimidin-1-yl)piperidin-1-yl)ethyl)piperidin-4-yl)methyl)thio)-2-(2,6-dioxopiperidin-3-yl)isoindoline-1,3-dione], in assay [1] (setting [4]), the DC50 is less than 10 nM. For the same compound, in assay [1] (setting [5]), the Dmax is greater than 90%. In addition, the IC50 in assay [2] (MINO) and in assay [3] was 1000 to 10000 nM throughout.

Regarding `NC(=O)c1c(-c2ccc(Oc3ccccc3)cc2)nn2c1NCC[C@H]2C1CCN(C(=O)N2CCN(CCN3CCC(c4ccc5c(c4)CN(C4CCC(=O)NC4=O)C5=O)CC3)CC2)CC1` (stereo partly drawn) [Compound 304, (7S)-7-(1-(4-(2-(4-(2-(2,6-dioxopiperidin-3-yl)-1-oxoisoindolin-5-yl)piperidin-1-yl)ethyl)piperazine-1-carbonyl)piperidin-4-yl)-2-(4-phenoxyphenyl)-4,5,6,7-tetrahydropyrazolo[1,5-a]pyrimidine-3-carboxamide], the Dmax in assay [1] was greater than 75%. Also, the DC50 in assay [1] (BTK degradation) lay within 10 to 50 nM. The IC50 in assay [2] (MINO) and in assay [3] was 1000 to 10000 nM throughout.

For `Nc1ncnc2c1c(-c1ccc(Oc3ccccc3)cc1)nn2C1CCN(CC2CCN(CC3CCN(c4ccc5c(c4)CN(C4CCC(=O)NC4=O)C5=O)CC3)C2)CC1` (stereo not shown) [Compound 446, 3-(5-(4-((3-((4-(4-amino-3-(4-phenoxyphenyl)-1H-pyrazolo(3,4-d)pyrimidin-1-yl)piperidin-1-yl)methyl)pyrrolidin-1-yl)methyl)piperidin-1-yl)-1-oxoisoindolin-2-yl)piperidine-2,6-dione], in assay [1], the “degradation of BTK protein” value is reported as “dose-dependent degradation”. Moreover, in assay [1] (setting [4]), the DC50 fell in the range of 10 to 50 nM. Moreover, the Dmax in assay [1] (setting [5]) is greater than 90%. Moreover, the IC50 in assay [2] and in assay [3] was 1000 to 10000 nM each time.

The record behind these values is patent publication US12139492B2 (Endotarget Inc., priority 2021, dated 2024).
